These are literature values, as cited in US20180030541A1, “METHOD FOR PREDICTING SENSITIVITY TO VASCULAR ENDOTHELIAL GROWTH FACTOR RECEPTOR INHIBITOR” (CBSBIOSCIENCE INC., priority 2014, published 2018).

The series relates to hepatocellular carcinoma. The following applies: drug approved for treating hepatocellular carcinoma; cancer patients.

Turning to `CNC(=O)c1cc(Oc2ccc(NC(=O)Nc3ccc(Cl)c(C(F)(F)F)c3)cc2)ccn1` [Nexavar, Sorafenib], the side effects entry is “very high” and the treatment rate was 2-3%.
